The subject of series [1] is H9C2 cardiomyoblasts. The experiment in a line: Uptake into H9C2 cardiomyoblasts by live-cell confocal microscopy. The series is classed as cell-based, rat. The method, then:
FIG. 4. Uptake of DOX and prodrugs c1 and c2 by H9C2 cardiomyoblasts. H9C2 cells cultures grown overnight on chambered coverslips in media with 10% serum were switched to Fluorobrite DMEM imaging media supplemented with 5% serum and prepared for live-cell imaging on a Zeiss LSM 880 confocal microscope, then 10 µM of c1, c2, or DOX was added and images were taken every 10 min (averaged every 30 min) for 18 h. Approximately 20 cells present in each field of view were averaged for each sample and time point; normalized and averaged data from two replicates each±SEM were included for c1 and DOX. An earlier independent trial yielded very similar results (Fig. S1).
Uptake of DOX and prodrugs into H9C2 cardiomyoblasts. Before comparing the biological effects of treatments by DOX and prodrugs, it was important to know their time dependence of accumulation into the H9C2 cardiomyoblasts under investigation. For this, confocal microscopy of live cells in culture was used to track in real time the accumulation of the fluorescent molecules into the cells, allowing direct comparisons between c1, c2 and Dox. […] Thus, any biological effects observed using c1 rather than DOX will not be due to limited cellular uptake.
To evaluate drug uptake, H9C2 cells were plated at a density of 20,000 per well on 24 well #1.5 polymer chambered coverslips (Ibidi) in media including 10% FBS and allowed to adhere for ~20 h. Prior to imaging analysis, the media was replaced with Fluorobrite DMEM imaging media (Gibco) supplemented with 5% FBS. To 1 mL of media in each well was added either vehicle (DMSO), or a 20 mM stock solution of c1, c2, or DOX to give final concentrations of 10 or 20 µM drug and 0.1% DMSO. […] DOX and the prodrugs were detected with excitation by a 458 nm laser at 0.3% and emission from 535-648 nm.
Each position consisted of a 3 slice z-stack that was compressed with a maximum intensity projection for analysis. […] The mean intensity for both channels was calculated, normalized, and then averaged to 30 min time points.

A short description of series [2]: Selectivity of DOX release from c1 towards biological analytes (LCMS). The format is physicochemical. As to conditions: 80 min. The method, then: FIG. 2. Percentage of released DOX from c1 in response to various biological analytes during an 80 min incubation period at room temperature: (1) ammonium bicarbonate buffer (0.1 M, pH 7.5), (2) 10 μM H2O2, (3) 100 μM cysteine, (4) 100 μM homocysteine, (5) 1 mM glutathione, (6) 10 μM glutathione disulfide, (7) 10 µM sodium nitrite, (8) 10 μM sodium hypochlorite, (9) 10 μM superoxide, (10) 10 μM peroxynitrite. A calibration curve was used to determine the concentration of free DOX in response to each analyte. Plotted as the mean±SEM from three independent experiments.
Selectivity of c1. […] After a reaction time of 80 min, an aliquot was removed and analyzed by LCMS. […]
Analyte stock solutions of glutathione (10 mM), oxidized glutathione (10 mM), homocysteine (10 mM), L-cysteine (10 mM), sodium nitrite (NaNO2 10 mM), superoxide (KO2, 10 mM), sodium peroxynitrite (NaOONO, 10 mM), and sodium hypochlorite (NaClO, 10 mM), were prepared in ammonium bicarbonate buffer (0.1 M pH 7.4). […] After reacting for 80 min, a 1 mL (inject volume 60 μL) aliquot was removed and analyzed by LC-MS (using a C18 analytical column and eluting at 0.4 mL/min with a linear gradient (20-90% v/v) MeOH/H2O (0-2 min), followed by 90% v/v MeOH/H2O (2-19 min)). The signals in the chromatogram were recorded at 500 nm and the peak corresponding to free DOX (7.0 min) was integrated.

Series [3] relates to caspase-3. Description: Caspase-3 cleavage immunoblot in H9C2 cells. The following applies: 24 h. As to the method: FIG. 6. […] H9C2 cells in culture were treated for 24 hr with c1, c2, DOX or vehicle (DMSO), then harvested into lysis buffer and immunoblotted for caspase-3. Data analyzed by ImageJ were used to assess the percent of the two bands present as the lower band.
We next evaluated apoptotic signaling through caspase-3 cleavage at 24 h to compare the experimental compounds.
To evaluate levels of caspase cleavage (using an antibody recognizing both cleaved and uncleaved, Cell Signaling, cat #9662), Nrf2 (antibody from Thermo Fisher, cat #PA5-27882), and HO-1 (antibody from Proteintech, cat #10701-1-AP), H9C2 cells were plated at a density of 450,000 per well in a 24-well plate, then treated 24 h later with 10 or 20 µM DOX and incubated another 24 h before harvesting. For some samples, 100 mM hydroxocobalamin (HO-Cbl) was added 5 min before drug treatment. Cells were harvested by removing media (and recovering any non-adherent cells by centrifugation for 5 min at 10,600×g, discarding the supernatant), and combining that with the 120 μL of lysis buffer added to each well. Lysis buffer [50 mM Tris-HCl at pH 8.0, with 100 mM NaCl, 100 µM diethylene triamine pentaacetic acid (DTPA), 20 mM β-glycerophosphate, 0.1% SDS, 0.5% Na Desoxycholate, and 0.5% Triton-X-100] was prepared by freshly adding protease and phosphatase inhibitors before use (1 mM PMSF, 10 μg/mL aprotinin, 1 mM Na3VO4, 10 mM NaF and 10 μg/mL leupeptin). Samples were further incubated on ice for 30 min, then centrifuged at high speed (20,800×g for 10 min) to remove cell debris, and supernatants were mixed with 5×SDS protein sample buffer for Western blot analysis following resolution of 40 μg per sample on 10% SDS-polyacrylamide gels. Protein concentrations of supernatants were determined using a BCA assay (Pierce). Antibodies were used at dilutions of 1:1000 (for HO-1 and caspase-3) or 1:3000 (for Nrf2).

Take `COc1cccc2c1C(=O)c1c(O)c3c(c(O)c1C2=O)C[C@@](O)(C(=O)CO)C[C@@H]3O[C@H]1C[C@H](NC(=S)OCc2ccc(B3OC(C)(C)C(C)(C)O3)cc2)[C@H](O)[C@H](C)O1` [c1]: in series [1] (H9C2 cells, 10 μM, fluorescence), the “time to maximal signal (cell accumulation)” value is listed as ~ 2 h. Also, the “accumulation in cells compared with DOX” value in series [1] (imaging over 18 h) is on record as “accumulated rapidly”. Besides, the “free DOX observed by LCMS” value in series [2] (in the presence of H2O2 (10 μM)) was “significant levels of free DOX”. The “stability (DOX release)” value in series [2] (buffer alone, reductants (cysteine, homocysteine, glutathione), other oxidants (glutathione disulfide, sodium nitrite, sodium hypochlorite, superoxide, peroxynitrite)) was “relatively stable”. The “caspase-3 cleavage with H2S scavenger hydroxocobalamin” value in series [3] (H9C2, 10 μM drug, 100 mM hydroxocobalamin added 5 min prior) was “much more cleavage of caspase-3 than in its absence”. Besides, the caspase-3 cleavage result in series [3] (H9C2, 10 or 20 μM) is on record as “neither c1 nor c2 at either 10 or 20 UM caused notable caspase-3 cleavage”.

(Values after patent publication US20260256922A1, “PRODRUGS USEFUL FOR REDUCING ANTHRACYCLINE CARDIOTOXICITY” (WAKE FOREST UNIVERSITY HEALTH SCIENCES, priority 2022, published 2026).)
